Measurements as given in PMC11651181, “Discovery of 6α-Thiazolylcarboxamidonaltrexamine Derivative (NTZ) as a Potent and Central Nervous System Penetrant Opioid Receptor Modulator with Drug-like Properties for Potential Treatment of Opioid Use Disorder” (ACS Pharmacology & Translational Science, 2024).
“Also recorded” adds a separate entry of the source. Structures can show the parent of a compound that is named as a salt.

How the values were obtained:
δ opioid receptor (DOR) = molecular target: T1, δ opioid receptor (DOR) (Homo sapiens, UniProt P41143); assay: Competitive radioligand binding assay, DOR; conditions: for Selectivity δ/μ: ratio of Ki values
T1 construct: expressed in transfected cells; host or cells: CHO (hDOR-CHO), membrane preparation
Protocol: (§1) The competition binding assay was performed using monoclonal mouse opioid receptors expressed in CHO cell lines (monoclonal human δ opioid receptor was used for the DOR assay).
(§2) The bound radioligand was separated using a Brandel harvester. Specific binding to the MOR, KOR, and DOR was calculated by subtracting the binding observed in the presence of 5 μM naltrexone, U50488, and SNC80, respectively, from the binding in their absence. Relative affinity values (IC50) were determined by fitting displacement binding inhibition data to a nonlinear regression model using GraphPad Prism 8.0 (GraphPad Software, San Diego, CA). The % inhibition was calculated using the formula: % inhibition = 100% - [(binding with the tested compound - nonspecific binding)/specific binding] × 100%. The IC50 values were converted to Ki values using the Cheng-Prusoff equation: Ki = IC50/ [1 + ([L*]/KD)], where [L*] is the concentration of the radioligand and KD is the KD of the radioligand.[68]

κ opioid receptor (KOR) = molecular target: T2, κ opioid receptor (KOR) (Mus musculus, UniProt P33534); assay: Competitive radioligand binding assay, KOR; conditions: for Selectivity κ/μ: ratio of Ki values
T2 construct: expressed in transfected cells; host or cells: CHO (mKOR-CHO), membrane preparation
Protocol: as §1, §2

μ opioid receptor (MOR) = molecular target: T3, μ opioid receptor (MOR) (Mus musculus, UniProt P42866); assay: Competitive radioligand binding assay, MOR
T3 construct: expressed in transfected cells; host or cells: CHO (mMOR-CHO), membrane preparation
Protocol: as §1, §2

MOR [1] = molecular target: T4, MOR (Mus musculus, UniProt P42866); assay: MOR [35S]GTPγS functional assay; type: biochemical; conditions: for Emax: read-out: MOR [35S]GTPγS Binding %Emax of DAMGO, relative to 3 μM DAMGO, mean ± SEM
T4 construct: expressed in transfected cells; host or cells: CHO (MOR-CHO), membrane preparation
Protocol: (§3) The [^35S]GTPγS functional assay was used to assess the efficacy of compounds at the MOR, KOR, and DOR. In this assay, 10 μg of MOR-CHO/KOR-CHO/DOR-CHO membrane protein was incubated in 500 μL of TME with 100 mM NaCl, 20 μM GDP, 0.1 nM [^35S]GTPγS, and varying concentrations of the compound for 1.5 h in a 30 °C water bath. Protein concentration was adjusted using the Bradford protein assay. […] After incubation, bound radioactivity was separated by filtration through GF/B glass fiber filters and measured by liquid scintillation counting. All assays were performed in duplicate and repeated at least three times. Net stimulated [35S]GTPγS binding was calculated as agonist-stimulated minus basal binding.

Swiss Webster mice = assay: Warm-water tail immersion assay, antagonism of morphine-induced antinociception; conditions: for Antagonism of morphine's antinociception, in words: single dose of 10 mg/kg s.c. in the presence of morphine (10 mg/kg), n = 6; for AD50 (95% CL) for counteracting morphine-induced antinociception: mice, s.c., given 5 min before morphine
DOR = molecular target: T5, DOR (Homo sapiens, UniProt P41143); assay: DOR [35S]GTPγS functional assay; type: biochemical
T5 construct: expressed in transfected cells; host or cells: CHO (DOR-CHO), membrane preparation
Protocol: as §3

MOR [2] = molecular target: T4, MOR; assay: MOR calcium flux assay in Gαqi5-transfected mMOR-CHO cells; type: cell-based
KOR = molecular target: T6, KOR (Mus musculus, UniProt P33534); assay: KOR [35S]GTPγS functional assay; type: biochemical
T6 construct: expressed in transfected cells; host or cells: CHO (KOR-CHO), membrane preparation
Protocol: as §3

Compound	Ki (δ opioid receptor (DOR)) [nM]	Selectivity δ/μ (δ opioid receptor (DOR))	Ki (κ opioid receptor (KOR)) [nM]	Selectivity κ/μ (κ opioid receptor (KOR))	Ki (μ opioid receptor (MOR)) [nM]	EC50 (MOR [1]) [nM]	Emax (MOR [1]) [%]	Antagonism of morphine's antinociception, in words (Swiss Webster mice)	EC50 (DOR) [nM]	Emax (DOR; relative to 3 μM SNC80, mean ± SEM, read-out: DOR [35S]GTPγS binding % Emax of SNC80) [%]	AD50 (95% CL) for counteracting morphine-induced antinociception (Swiss Webster mice)	IC50 (MOR [2]) [nM]	Agonistic activity in increasing intracellular calcium, in words (MOR [2]; compared to full MOR agonist DAMGO)	EC50 (KOR) [nM]	Emax (KOR; relative to 3 μM U50488H, mean ± SEM, read-out: KOR [35S]GTPγS binding % Emax of U50488H) [%]
O=C(Cc1ccns1)N[C@H]1CC[C@@]2(O)[C@H]3Cc4ccc(O)c5c4[C@@]2(CCN3CC2CC2)[C@H]1O5 [Compound 2, 17-Cyclopropylmethyl-3,14β-dihydroxy-4,5α-epoxy-6α-(5′-isothiazolylacetamido)-morphinan hydrochloride]	13.9 ± 1.62	25	1.49 ± 0.13	3	0.55 ± 0.06	4.62 ± 0.44	18.2 ± 1.06	–	–	–	–	–	–	–	–
O=C(N[C@H]1CC[C@@]2(O)[C@H]3Cc4ccc(O)c5c4[C@@]2(CCN3CC2CC2)[C@H]1O5)c1cncs1 [Compound 3, 17-Cyclopropylmethyl-3,14β-dihydroxy-4,5α-epoxy-6α-(5′-thiazolylcarboxamido)-morphinan hydrochloride]	16.8 ± 3.88	48	0.97 ± 0.11	3	0.35 ± 0.02	2.77 ± 0.51	15.9 ± 1.84	–	–	–	–	–	–	–	–
O=C(Cc1cncs1)N[C@H]1CC[C@@]2(O)[C@H]3Cc4ccc(O)c5c4[C@@]2(CCN3CC2CC2)[C@H]1O5 [Compound 4, 17-Cyclopropylmethyl-3,14β-dihydroxy-4,5α-epoxy-6α-(5′-thiazolylacetamido)-morphinan hydrochloride]	8.5 ± 0.56	15	2.08 ± 0.39	4	0.57 ± 0.02	5.87 ± 1.26	17 ± 0.89	–	–	–	–	–	–	–	–
O=C(CCc1cncs1)N[C@H]1CC[C@@]2(O)[C@H]3Cc4ccc(O)c5c4[C@@]2(CCN3CC2CC2)[C@H]1O5 [Compound 5, 17-Cyclopropylmethyl-3,14β-dihydroxy-4,5α-epoxy-6α-[(3′-(thiazolyl-5′′-yl)propan-amido]morphinan hydrochloride]	11.6 ± 1.24	16	2.04 ± 0.38	3	0.71 ± 0.08	2.76 ± 0.58	10.7 ± 1.02	–	–	–	–	–	–	–	–
O=C(Cc1nccs1)N[C@H]1CC[C@@]2(O)[C@H]3Cc4ccc(O)c5c4[C@@]2(CCN3CC2CC2)[C@H]1O5 [Compound 7, 17-Cyclopropylmethyl-3,14β-dihydroxy-4,5α-epoxy-6α-(2′-thiazolylacetamido)-morphinan hydrochloride]	1.3 ± 0.08	2	2.26 ± 0.5	3	0.65 ± 0.05	3.87 ± 1.29	10.2 ± 0.61	significantly antagonized	–	–	–	–	–	–	–
O=C(CCc1nccs1)N[C@H]1CC[C@@]2(O)[C@H]3Cc4ccc(O)c5c4[C@@]2(CCN3CC2CC2)[C@H]1O5 [Compound 8, 17-Cyclopropylmethyl-3,14β-dihydroxy-4,5α-epoxy-6α-[(3′-(thiazolyl-2′′-yl)propan-amido]morphinan hydrochloride]	1.18 ± 0.06	3	2 ± 0.42	4	0.45 ± 0.06	3.4 ± 0.6	13.4 ± 0.41	significantly antagonized	–	–	–	–	–	–	–
O=C(N[C@@H]1CC[C@@]2(O)[C@H]3Cc4ccc(O)c5c4[C@@]2(CCN3CC2CC2)[C@H]1O5)c1ccns1 [Compound 9, 17-Cyclopropylmethyl-3,14β-dihydroxy-4,5α-epoxy-6β-(5′-isothiazolylcarboxamido)-morphinan hydrochloride]	67.8 ± 7.17	–	1.22 ± 0.32	4	0.32 ± 0.03	0.71 ± 0.14	9.66 ± 1.37	significantly antagonized	58.1 ± 10.3	44.4 ± 4.15	4.77 (3.59–6.34) mg/kg	6.53 ± 2.28	no apparent agonism; also recorded: none of them showed any significant agonistic activity	7.06 ± 0.18	49.9 ± 1.99
O=C(Cc1ccns1)N[C@@H]1CC[C@@]2(O)[C@H]3Cc4ccc(O)c5c4[C@@]2(CCN3CC2CC2)[C@H]1O5 [Compound 10, 17-Cyclopropylmethyl-3,14β-dihydroxy-4,5α-epoxy-6β-(5′-isothiazolylacetamido)-morphinan hydrochloride]	34 ± 4.18	58	1.14 ± 0.05	2	0.59 ± 0.09	1.16 ± 0.15	9.32 ± 0.67	significantly antagonized	–	–	13.12 (2.34–73.39) mg/kg	–	–	–	–
O=C(N[C@@H]1CC[C@@]2(O)[C@H]3Cc4ccc(O)c5c4[C@@]2(CCN3CC2CC2)[C@H]1O5)c1cncs1 [Compound 11, 17-Cyclopropylmethyl-3,14β-dihydroxy-4,5α-epoxy-6β-(5′-thiazolylcarboxamido)-morphinan hydrochloride]	77.9 ± 16.1	147	1.41 ± 0.24	3	0.53 ± 0.04	1.58 ± 0.44	13.7 ± 1.32	significantly antagonized	–	–	–	–	–	–	–
O=C(Cc1cncs1)N[C@@H]1CC[C@@]2(O)[C@H]3Cc4ccc(O)c5c4[C@@]2(CCN3CC2CC2)[C@H]1O5 [Compound 12, 17-Cyclopropylmethyl-3,14β-dihydroxy-4,5α-epoxy-6β-(5′-thiazolylacetamido)-morphinan hydrochloride]	17.5 ± 1.91	44	0.89 ± 0.05	2	0.39 ± 0.04	1.24 ± 0.25	13 ± 0.76	–	–	–	–	–	–	–	–
O=C(CCc1cncs1)N[C@@H]1CC[C@@]2(O)[C@H]3Cc4ccc(O)c5c4[C@@]2(CCN3CC2CC2)[C@H]1O5 [Compound 13, 17-Cyclopropylmethyl-3,14β-dihydroxy-4,5α-epoxy-6β-[(3′-(thiazolyl-5′′-yl)propan-amido]morphinan hydrochloride]	31.5 ± 2.78	65	1.2 ± 0.25	2	0.49 ± 0.07	1.39 ± 0.36	10.5 ± 0.92	–	–	–	–	–	–	–	–
O=C(Cc1nccs1)N[C@@H]1CC[C@@]2(O)[C@H]3Cc4ccc(O)c5c4[C@@]2(CCN3CC2CC2)[C@H]1O5 [Compound 15, 17-Cyclopropylmethyl-3,14β-dihydroxy-4,5α-epoxy-6β-(2′-thiazolylacetamido)-morphinan hydrochloride]	26.4 ± 2.65	76	1.89 ± 0.77	5	0.35 ± 0.04	0.78 ± 0.18	11 ± 0.43	–	–	–	–	–	–	–	–
O=C(CCc1nccs1)N[C@@H]1CC[C@@]2(O)[C@H]3Cc4ccc(O)c5c4[C@@]2(CCN3CC2CC2)[C@H]1O5 [Compound 16, 17-Cyclopropylmethyl-3,14β-dihydroxy-4,5α-epoxy-6β-[(3′-(thiazolyl-2′′-yl)propan-amido]morphinan hydrochloride]	18.8 ± 3.26	54	0.67 ± 0.08	2	0.35 ± 0.03	1.75 ± 0.46	12.1 ± 0.67	–	–	–	–	–	–	–	–
